According to patent US9604931B2, “Nuclear receptor binding agents” (GTx, Inc., priority 2007, dated 2017):
“Also recorded” adds a separate entry of the source. Read-outs that look alike come from different tables or passages of the source.

What was measured:
[1] = biological target: ERα ligand binding domain (Homo sapiens, UniProt P03372); experiment: Competitive [3H]-estradiol binding assay, ER-α (Example 21); details: for Ki: read-out: ER-α binding constant (Ki); for inhibition at 0.1 µM: 100 nM of compound, read-out: Percent Inhibition of [3H]-Estradiol Binding to ER-α
Experimental: (§1) ER binding affinity was determined via one of the following methods:
(§2) Briefly, the incubation mixture was filtered through a high affinity protein binding filter, and washed several times to remove any unbound radioactivity. The filter plate was air dried and sealed on the bottom.
(§3) Nonspecific binding was subtracted from total binding to yield specific binding.

[2] = biological target: ERβ ligand binding domain (Homo sapiens, UniProt Q92731); experiment: Competitive [3H]-estradiol binding assay, ER-β (Example 21); details: for Ki: read-out: ER-β binding constant (Ki); for inhibition at 0.1 µM: read-out: Percent Inhibition of [3H]-Estradiol Binding to ER-β
Experimental: as §1, §2, §3

[3] = biological target: ER-α (Rattus norvegicus (Rat), UniProt P06211); format: cell-based; details: 100 nM compound compared to 1 nM estradiol
Experimental: COS or 293 cells were plated in DME without phenol red+10% cs FBS at 90,000 cells per well in 24 well plates, and were transfected with 0.25 μg of the vector “ERE-LUC”, where a firefly luciferase gene was driven by two estrogen responsive elements and 0.02 μg of the control CMV-LUC, Renilla where a luciferase gene was driven by a CMV promoter. […] All the receptors were cloned from rat tissue into the PCR3.1 vector backbone. Twenty four hours post transfection, cells were treated with compounds of this invention, estrogen, DHT, and other NRBAs or combinations thereof. Cells were harvested 48 hrs after transfection, and assayed for firefly and Renilla luciferase activity.

[4] = biological target: ER-β (Rattus norvegicus (Rat), UniProt Q62986); experiment: ER-β transactivation (ERE-LUC) in COS or 293 cells; format: cell-based; details: for activation at 0.1 µM: HEK293, 48 h
[5] = system: rat aorta rings; experiment: Rat aortic ring relaxation; details: 10^-6 PE constriction; for EC50: Rattus norvegicus
Excerpt: Experimental protocol. Equipment used in these studies included a 4-tissue bath system with reservoirs and circulators (RadnotiGlass Technology, Monrovia, Calif.), DSI/Ponemah tissue force analyzer 7700 (Valley View, Ohio), and iWorx/CB Sciencesforce transducers FT-302. The 250 g rats were anesthetized with isoflurane to produce deep anesthesia. The chest of the rat was opened, and about 3 cm length of aorta was removed and placed in a Petri dish containing room temperature Krebs salt solution (KSS, in mM: 120 NaCl, 5 KCl, 1.2 MgSO4.7H20, 2.5 CaCl2.2H2O, 1 KH2PO4, 25 NaHCO3, and 11 glucose). Fat and connective tissue were removed from the aorta taking care not to stretch the vessel. The aorta was then divided into 3-mm-wide rings. Triangular wire holders were inserted through the lumen of the vessel and connected to the force transducer and tissue holder rod in the vessel bath.
Analog-to-digital conversions of force waveforms were accomplished with a DSI/Ponemah tissue force analyzer 7700. The converted data were automatically analyzed with Ponemah Physiology-Smooth Muscle software. All data are summarized as means±standard error. Differences between means were assessed by a conventional ANOVA. This was followed by Student's test. P<0.05 was considered to be statistically significant.
The tension on the rings was adjusted to 1.0 g passive force using the tension adjustment dial for each transducer and allowed to equilibrate for 60 min in the bath with a 95% O2-5% CO2 gas mixture. The rings were washed with fresh buffer every 20 min. Passive force was readjusted to 1.0 g as needed during this period. When rings were stable at 1.0 g of passive force, the baseline was calculated.
Phenylephrine (PE) at a final concentration of […] was added to the bath to contract the ring, and force was allowed to stabilize for 10 min. Then acetylcholine (ACH) at a final concentration of 10^−5 M was added to the precontracted rings to test for endothelial integrity […]. After the initial test for vessel viability and endothelial integrity, the rings were washed three times for 10 min with buffer, allowing it to equilibrate to active force stabilized at 1 g.
Cumulative concentration-response curves to NRBAs were created by increasing the NRBAs concentration in the tissue bath by successive addition of appropriate dilutions of stock solutions to achieve final bath concentrations of 300 nM to 0.15 mM NRBAs.
Table 10 summarizes EC50 values and maximal % decrease of the 10^−6 PE constriction of the aortic ring for individual NRBAs tested

[6] = system: Rat Aortic Smooth Muscle Cells (RASMC); experiment: RASMC cell proliferation assay (WST-1); format: cell-based; details: for EC50: inhibitory effect sigmoid Emax model, read-out: EC50 for inhibition of RASMC proliferation; for Proliferation of RASMC: concentration between 10-30 μM
Experimental: EC50 values were calculated using WinNonLin 5.0.1 using the inhibitory effect sigmoid Emax model.

[7] = system: ARPE-19 cells; experiment: Fluorescent detection of intracellular ROS; format: cell-based, Human; details: 150 μM tBH
Excerpt: Cells were allowed to adhere overnight. […] Removed and washed cells once with HBSS. […] Each drug concentration was done in triplicates.

[8] = read-out: Estradiol activity at 100 nM of NRBA, ER-β

Sequence of ER-β (Q62986 whole entry): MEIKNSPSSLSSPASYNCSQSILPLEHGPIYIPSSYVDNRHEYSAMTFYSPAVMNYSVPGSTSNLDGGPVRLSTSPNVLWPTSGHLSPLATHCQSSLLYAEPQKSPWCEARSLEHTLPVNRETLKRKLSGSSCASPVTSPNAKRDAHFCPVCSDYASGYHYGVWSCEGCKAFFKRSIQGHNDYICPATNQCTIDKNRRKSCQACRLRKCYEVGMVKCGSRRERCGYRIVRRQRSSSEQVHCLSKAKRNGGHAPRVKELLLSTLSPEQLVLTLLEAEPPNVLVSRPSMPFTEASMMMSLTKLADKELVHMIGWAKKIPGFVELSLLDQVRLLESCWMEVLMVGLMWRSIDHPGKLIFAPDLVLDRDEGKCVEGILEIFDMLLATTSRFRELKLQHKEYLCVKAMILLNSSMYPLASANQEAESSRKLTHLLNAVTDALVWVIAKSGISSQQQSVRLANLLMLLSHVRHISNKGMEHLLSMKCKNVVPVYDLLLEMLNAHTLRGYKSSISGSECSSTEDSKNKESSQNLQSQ
Sequence of ERα ligand binding domain (P03372 whole entry, looked up, the tested form may be a part): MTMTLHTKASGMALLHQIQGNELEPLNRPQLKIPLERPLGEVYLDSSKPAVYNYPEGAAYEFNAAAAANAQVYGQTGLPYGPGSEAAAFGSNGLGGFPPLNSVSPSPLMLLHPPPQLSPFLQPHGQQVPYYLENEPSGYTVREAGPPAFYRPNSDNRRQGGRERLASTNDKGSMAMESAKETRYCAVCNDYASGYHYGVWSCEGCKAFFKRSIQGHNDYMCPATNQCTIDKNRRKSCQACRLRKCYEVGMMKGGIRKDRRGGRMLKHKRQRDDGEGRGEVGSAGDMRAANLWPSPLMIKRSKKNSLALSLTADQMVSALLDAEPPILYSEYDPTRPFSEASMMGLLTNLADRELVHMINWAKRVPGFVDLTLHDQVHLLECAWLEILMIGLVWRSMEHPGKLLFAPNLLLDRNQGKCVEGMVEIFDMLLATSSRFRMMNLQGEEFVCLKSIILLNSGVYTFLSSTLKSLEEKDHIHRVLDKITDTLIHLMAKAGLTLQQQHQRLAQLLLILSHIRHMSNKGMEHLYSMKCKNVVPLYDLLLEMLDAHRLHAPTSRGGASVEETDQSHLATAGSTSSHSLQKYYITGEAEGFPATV
Sequence of ERβ ligand binding domain (Q92731 whole entry, looked up, the tested form may be a part): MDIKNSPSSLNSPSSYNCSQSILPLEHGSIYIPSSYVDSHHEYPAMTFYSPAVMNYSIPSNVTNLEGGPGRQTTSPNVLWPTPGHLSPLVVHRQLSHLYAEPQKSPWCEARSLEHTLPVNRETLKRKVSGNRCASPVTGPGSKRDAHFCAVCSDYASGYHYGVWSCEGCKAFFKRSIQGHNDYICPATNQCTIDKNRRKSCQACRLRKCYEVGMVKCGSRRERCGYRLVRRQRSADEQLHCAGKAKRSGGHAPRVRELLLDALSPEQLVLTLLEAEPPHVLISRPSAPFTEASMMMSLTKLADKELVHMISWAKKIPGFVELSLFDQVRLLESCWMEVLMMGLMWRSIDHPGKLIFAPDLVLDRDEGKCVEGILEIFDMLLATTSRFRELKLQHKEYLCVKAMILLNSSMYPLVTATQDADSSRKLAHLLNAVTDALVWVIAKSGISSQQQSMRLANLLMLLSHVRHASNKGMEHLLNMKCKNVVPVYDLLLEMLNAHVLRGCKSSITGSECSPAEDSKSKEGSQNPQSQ

C=Cc1cn(-c2ccc(O)c(F)c2)c(=O)c2c(O)cc(O)cc12 [15c, 2-(3-fluoro-4-hydroxyphenyl)-6,8-dihydroxy-4-vinylisoquinolin-1(2H)-one]
Ki [1]: 0.205 µM
Ki Ratio (ER-α/ER-β) [2]: 51.7
Ki [2]: 0.00396 µM

O=c1c2ccc(O)cc2c(Br)cn1-c1ccc(O)c(F)c1 [12d, 4-bromo-2-(3-fluoro-4-hydroxyphenyl)-6-hydroxy-isoquinolin-1(2H)-one]
inhibition at 0.1 µM [1]: 0%
inhibition at 0.1 µM [2]: 38.7%

COc1ccc(-c2cn(-c3ccc(O)cc3)c(=O)c3ccc(O)cc23)cc1 [15b, 6-hydroxy-2-(4-hydroxyphenyl)-4-(4-methoxyphenyl)isoquinolin-1(2H)-one]
Ki Ratio (ER-α/ER-β) [2]: 8.3

Oc1ccc(-n2ccc3cc(O)cc(O)c3c2=S)cc1 [12p, 2-(4-hydroxyphenyl)-6,8-dihydroxy-isoquinoline-1(2H)-thione]
inhibition at 0.1 µM [1]: 25.8%
Ki Ratio (ER-α/ER-β) [2]: 8
inhibition at 0.1 µM [2]: 80.7%
Estradiol activity at 100 nM of NRBA, ER-α [3]: 45%
ER-β agonist activity [4]: ER-β agonists; also recorded: ER-β agonist activity
activation at 0.1 µM [4, 8]: 85%

O=c1c2c(O)cc(O)cc2ccn1-c1ccc(O)cc1 [12l, 6,8-dihydroxy-2-(4-hydroxyphenyl)-isoquinolin-1(2H)-one]
inhibition at 0.1 µM [1]: 2.5%
inhibition at 0.1 µM [2]: 34.4%

C/C=C/c1cn(-c2ccc(O)cc2)c(=O)c2c(O)cc(O)cc12 [15i, (E)-6,8-dihydroxy-2-(4-hydroxyphenyl)-4-(prop-1-enyl)isoquinolin-1(2H)-one]
Ki [1]: 0.102 µM
Ki Ratio (ER-α/ER-β) [2]: 61.4

O=c1c2ccc(O)cc2c(I)cn1-c1ccc(O)cc1 [12h, 6-hydroxy-2-(4-hydroxyphenyl)-4-iodoisoquinolin-1(2H)-one]
inhibition at 0.1 µM [1]: 7.7%
Ki Ratio (ER-α/ER-β) [2]: 22
inhibition at 0.1 µM [2]: 40.5%
ER-β agonist activity [4]: ER-β agonist activity

O=c1c2ccc(O)cc2c(Cl)cn1-c1ccc(O)cc1 [12f, 4-chloro-6-hydroxy-2-(4-hydroxyphenyl)-isoquinolin-1(2H)-one]
inhibition at 0.1 µM [1]: 0%
Ki Ratio (ER-α/ER-β) [2]: 61
inhibition at 0.1 µM [2]: 47.5%
ER-β agonist activity [4]: ER-β agonist activity

O=c1c2c(O)cc(O)c(Br)c2ccn1-c1ccc(O)cc1 [12m, 5-bromo-6,8-dihydroxy-2-(4-hydroxyphenyl)isoquinolin-1(2H)-one]
inhibition at 0.1 µM [1]: 5.2%
inhibition at 0.1 µM [2]: 0%

O=c1c2ccc(O)cc2c(I)cn1-c1ccc(O)c(F)c1 [12n, 2-(3-fluoro-4-hydroxyphenyl)-6-hydroxy-4-iodoisoquinolin-1(2H)-one]
inhibition at 0.1 µM [1]: 6.2%
inhibition at 0.1 µM [2]: 8.7%

C=Cc1cn(-c2ccc(O)cc2)c(=O)c2c(O)cc(O)cc12 [14l, 6,8-dihydroxy-2-(4-hydroxyphenyl)-4-vinylisoquinolin-1(2H)-one]
Estradiol activity at 100 nM of NRBA, ER-α [3]: 50%
activation at 0.1 µM ([4]; read-out: Estradiol activity at 100 nM of NRBA, ER-β, 100 nM compound compared to 1 nM estradiol): 52.7%
Mean of Maximal % Decrease of the PE constriction of the aortic ring [5]: 45.01%
EC50 [5]: 19.8 µM
EC50 ([6]; Rattus norvegicus): 9.63 µM
Proliferation of RASMC [6]: inhibited the proliferation of RASMC in a dose-dependent manner
Inhibition of ROS formation [7]: more than 50%
Prevention of ROS formation / oxidative stress [7]: protected ARPE-19 cells from oxidative damage

COc1cc(O)c2c(=O)n(-c3ccc(O)cc3)cc(Br)c2c1 [12v, 4-bromo-8-hydroxy-2-(4-hydroxyphenyl)-6-methoxyisoquinolin-1(2H)-one]
Estradiol activity at 100 nM of NRBA, ER-α [3]: 17%
activation at 0.1 µM [4, 8]: 10%

O=c1c2c(O)cc(O)cc2c(-c2ccccc2)cn1-c1ccc(O)cc1 [15h, 6,8-dihydroxy-2-(4-hydroxyphenyl)-4-phenylisoquinolin-1(2H)-one]
Ki [1]: 0.124 µM
Ki Ratio (ER-α/ER-β) [2]: 41.1

COc1ccc(-c2coc3cc(O)cc(O)c3c2=O)cc1 [Biochanin A, reference compound]
Proliferation of RASMC [6]: inhibited the proliferation of RASMC in a dose-dependent manner
EC50 [6]: 9.79 µM

O=c1c2c(O)cc(O)cc2c(Br)cn1-c1ccc(O)c(F)c1 [12z, 4-bromo-6,8-dihydroxy-2-(3-fluoro-4-hydroxyphenyl)isoquinolin-1(2H)-one]
inhibition at 0.1 µM [1]: 52.8%
Ki Ratio (ER-α/ER-β) [2]: 12
Ki [2]: 0.003 µM
inhibition at 0.1 µM [2]: 95.3%
ER-β agonist activity [4]: ER-β agonist activity
Mean of Maximal % Decrease of the PE constriction of the aortic ring [5]: 83.58%
EC50 [5]: 15.1 µM
EC50 ([6]; Rattus norvegicus): 25.1 µM
Prevention of ROS formation / oxidative stress [7]: able to prevent ROS formation as well as estradiol; also recorded: protected ARPE-19 cells from oxidative damage

N#Cc1cc(O)cc2c(Br)cn(-c3ccc(O)cc3)c(=O)c12 [14k, 4-bromo-6-hydroxy-2-(4-hydroxyphenyl)-1-oxo-1,2-dihydroisoquinoline-8-carbonitrile]
Ki [1]: > 0.394 µM
Ki [2]: 0.046 µM

COc1ccc(-c2cn(-c3ccc(O)cc3)c(=O)c3c(O)cc(O)cc23)cc1 [15g, 6,8-dihydroxy-2-(4-hydroxyphenyl)-4-(4-methoxyphenyl)isoquinolin-1(2H)-one]
Ki [2]: 0.00048 µM

Oc1ccc(-n2cc(Br)c3cc(O)ccc3c2=S)cc1 [12r, 4-bromo-6-hydroxy-2-(4-hydroxyphenyl)isoquinoline-1(2H)-thione]
inhibition at 0.1 µM [1]: 35.7%
inhibition at 0.1 µM [2]: 75.5%

O=c1c2c(O)cc(O)cc2ccn1-c1ccc(O)c(F)c1 [12s, 2-(3-fluoro-4-hydroxyphenyl)-6,8-dihydroxyisoquinolin-1(2H)-one]
inhibition at 0.1 µM [1]: 4.5%
Ki Ratio (ER-α/ER-β) [2]: 25
inhibition at 0.1 µM [2]: 52.8%
Estradiol activity at 100 nM of NRBA, ER-α [3]: 29%
ER-β agonist activity [4]: ER-β agonist activity
activation at 0.1 µM [4, 8]: 76.9%

COc1cc(O)c2c(=O)n(-c3ccc(O)cc3)ccc2c1C#N [12q, 8-hydroxy-2-(4-hydroxyphenyl)-6-methoxy-1-oxo-1,2-dihydroisoquinoline-5-carbonitrile]
Estradiol activity at 100 nM of NRBA, ER-α [3]: 25%
activation at 0.1 µM [4, 8]: 10%

O=c1c2ccc(O)cc2c(Cl)cn1-c1ccc(O)c(F)c1 [12g, 4-chloro-2-(3-fluoro-4-hydroxyphenyl)-6-hydroxy-isoquinolin-1(2H)-one]
inhibition at 0.1 µM [1]: 0%
inhibition at 0.1 µM [2]: 29.4%
